What was measured:
barnyardgrass [1] = experiment: Test A preemergence; assay type: in vivo, Echinochloa crus-galli; conditions: for Plant response rating, Barnyardgrass: 0 to 100 scale where 0 is no effect and 100 is complete control
Summary of the method: (§1)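 Visual injury scored 0–100 (100 = complete control) against untreated controls about 10 days after treatment in a greenhouse. Test chemicals, formulated with surfactant in non-phytotoxic solvent, were sprayed on soil preemergence or on 2-10 cm, one- to two-leaf plants postemergence.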

kochia [2] = experiment: Test A preemergence; assay type: in vivo, Kochia scoparia; conditions: for Plant response rating, Kochia: 0 to 100 scale where 0 is no effect and 100 is complete control
Summary of the method: as §1

ragweed [3] = experiment: Test A preemergence; assay type: in vivo, Ambrosia elatior; conditions: for Plant response rating, Ragweed: 0 to 100 scale where 0 is no effect and 100 is complete control
Summary of the method: as §1

Italian ryegrass [4] = experiment: Test A preemergence; assay type: in vivo, Lolium multiflorum; conditions: for Plant response rating, Ryegrass, Italian: 0 to 100 scale where 0 is no effect and 100 is complete control
Summary of the method: as §1

giant foxtail [5] = experiment: Test A preemergence; assay type: in vivo, Setaria faberii; conditions: for Plant response rating, Foxtail, Giant: 0 to 100 scale where 0 is no effect and 100 is complete control
Summary of the method: as §1

pigweed [6] = experiment: Test A preemergence; assay type: in vivo, Amaranthus retroflexus; conditions: for Plant response rating, Pigweed: 0 to 100 scale where 0 is no effect and 100 is complete control
Summary of the method: as §1

barnyardgrass [7] = experiment: Test A postemergence; assay type: in vivo, Echinochloa crus-galli
Summary of the method: as §1

kochia [8] = experiment: Test A postemergence; assay type: in vivo, Kochia scoparia
Summary of the method: as §1

ragweed [9] = experiment: Test A postemergence; assay type: in vivo, Ambrosia elatior; conditions: 0 to 100 scale, 0 no effect, 100 complete control
Summary of the method: as §1

Italian ryegrass [10] = experiment: Test A postemergence; assay type: in vivo, Lolium multiflorum; conditions: 0 to 100 scale, 0 no effect, 100 complete control
Summary of the method: as §1

giant foxtail [11] = experiment: Test A postemergence; assay type: in vivo, Setaria faberii
Summary of the method: as §1

pigweed [12] = experiment: Test A postemergence; assay type: in vivo, Amaranthus retroflexus; conditions: 0 to 100 scale, 0 no effect, 100 complete control
Summary of the method: as §1

wheat = experiment: Test A postemergence; assay type: in vivo, Triticum aestivum; conditions: 0 to 100 scale, 0 no effect, 100 complete control
Summary of the method: as §1

corn = experiment: Test A postemergence; assay type: in vivo, Zea mays
Summary of the method: as §1

blackgrass = experiment: Test A postemergence; assay type: in vivo, Alopecurus myosuroides
Summary of the method: as §1

galium = experiment: Test A postemergence; assay type: in vivo, Galium aparine
Summary of the method: as §1

rice = experiment: Test B flooded paddy test; assay type: in vivo, Oryza sativa; conditions: Flood, 250 g ai/ha; 0 to 100 scale where 0 is no effect and 100 is complete control
Summary of the method: (§2)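 Post-emergence paddy-water application at the 2-leaf stage, with 3 cm flood kept for the whole test. Response was judged visually relative to controls after 13 to 15 greenhouse days, 0 indicating no effect and 100 complete control.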

sedge, umbrella = experiment: Test B flooded paddy test; assay type: in vivo, Cyperus difformis; conditions: Flood, 250 g ai/ha; 0 to 100 scale where 0 is no effect and 100 is complete control
Summary of the method: as §2

Heteranthera limosa = experiment: Test B flooded paddy test; assay type: in vivo; conditions: Flood, 250 g ai/ha; 0 to 100 scale where 0 is no effect and 100 is complete control
Summary of the method: as §2

barnyardgrass [13] = experiment: Test B flooded paddy test; assay type: in vivo, Echinochloa crus-galli; conditions: Flood, 250 g ai/ha; 0 to 100 scale where 0 is no effect and 100 is complete control
Summary of the method: as §2

[14] = 31 g ai/ha, visual, approximately 10 days
[15] = 31 g ai/ha, 0 to 100 scale, 0 no effect, 100 complete control
[16] = 125 g ai/ha, 0 to 100 scale, 0 no effect, 100 complete control
[17] = 125 g ai/ha, 0 to 100 scale where 0 is no effect and 100 is complete control

Structure (SMILES) | Plant response rating, Barnyardgrass (barnyardgrass [1]; [14]) | Barnyardgrass plant response rating (0 to 100 scale, 0 is no effect, 100 is complete control) (barnyardgrass [1]; 125 g ai/ha) | Plant response rating, Kochia (kochia [2]; [14]) | Kochia plant response rating (0 to 100 scale) (kochia [2]; 125 g ai/ha) | Plant response rating, Ragweed (ragweed [3]; [14]) | Ragweed plant response rating (0 to 100 scale) (ragweed [3]; 125 g ai/ha) | Plant response rating, Barnyardgrass (barnyardgrass [7]; [15]) | Plant response rating, Kochia (kochia [8]; [15]) | Plant response rating, Ragweed (ragweed [9]; 31 g ai/ha) | Plant response rating, Ryegrass, Italian (Italian ryegrass [10]; 31 g ai/ha) | Plant response rating, Foxtail, Giant (giant foxtail [11]; [15]) | Plant response rating, Pigweed (pigweed [12]; 31 g ai/ha) | Plant response rating, Wheat (wheat; 31 g ai/ha) | Plant response rating, Corn (corn; [15]) | Plant response rating, Blackgrass (blackgrass; [15]) | Plant response rating, Galium (galium; [15]) | Plant response rating, Rice (rice) | Plant response rating, Sedge, Umbrella (sedge, umbrella) | Plant response rating, Ducksalad (Heteranthera limosa) | Plant response rating, Barnyardgrass (barnyardgrass [13]) | also measured
CC(C)Oc1cnn(-c2c(C#N)cccc2Oc2ncc(Br)cn2)c1 [Compound 254] | 20 | 80 | 20 | 80 | 0 | 0 | 10 | 20 | 10 | 0 | 10 | 10 | 0 | 10 | 0 | 20 | 0 | 60 | 65 | 0 | Plant response rating, Ryegrass, Italian (Italian ryegrass [4]; [14]): 0; Ryegrass, Italian plant response rating (0 to 100 scale) (Italian ryegrass [4]; 125 g ai/ha): 40; Plant response rating, Foxtail, Giant (giant foxtail [5]; [14]): 30; Foxtail, Giant plant response rating (0 to 100 scale) (giant foxtail [5]; 125 g ai/ha): 90; Plant response rating, Pigweed (pigweed [6]; [14]): 30; Pigweed plant response rating (0 to 100 scale) (pigweed [6]; 125 g ai/ha): 90; Plant response rating, Barnyardgrass (barnyardgrass [7]; [16]): 60; Plant response rating, Kochia (kochia [8]; [16]): 60; Plant response rating, Ragweed (ragweed [9]; 125 g ai/ha): 20; Plant response rating, Ryegrass, Italian (Italian ryegrass [10]; 125 g ai/ha): 20; Plant response rating, Foxtail, Giant (giant foxtail [11]; [16]): 60; Plant response rating, Pigweed (pigweed [12]; 125 g ai/ha): 30; Plant response rating, Wheat (wheat; 125 g ai/ha): 30; Plant response rating, Corn (corn; [16]): 20; Plant response rating, Blackgrass (blackgrass; [16]): 60; Plant response rating, Galium (galium; [16]): 100
Cc1cc(C(F)F)nn1-c1ccccc1Oc1ncc(Cl)cn1 [Compound 267] | 0 | 0 | 0 | 0 | 0 | 0 | 0 | 0 | 0 | 0 | 0 | 0 | 0 | 0 | 0 | 0 | 0 | 0 | 0 | 0 | Plant response rating, Ryegrass, Italian (Italian ryegrass [4]; [14]): 0; Ryegrass, Italian plant response rating (0 to 100 scale) (Italian ryegrass [4]; 125 g ai/ha): 0; Plant response rating, Foxtail, Giant (giant foxtail [5]; [14]): 0; Foxtail, Giant plant response rating (0 to 100 scale) (giant foxtail [5]; 125 g ai/ha): 0; Plant response rating, Pigweed (pigweed [6]; [14]): 0; Pigweed plant response rating (0 to 100 scale) (pigweed [6]; 125 g ai/ha): 0; Plant response rating, Barnyardgrass (barnyardgrass [7]; [16]): 0; Plant response rating, Kochia (kochia [8]; [16]): 0; Plant response rating, Ragweed (ragweed [9]; 125 g ai/ha): 0; Plant response rating, Ryegrass, Italian (Italian ryegrass [10]; 125 g ai/ha): 0; Plant response rating, Foxtail, Giant (giant foxtail [11]; [16]): 0; Plant response rating, Pigweed (pigweed [12]; 125 g ai/ha): 0; Plant response rating, Wheat (wheat; 125 g ai/ha): 0; Plant response rating, Corn (corn; [16]): 0; Plant response rating, Blackgrass (blackgrass; [16]): 0; Plant response rating, Galium (galium; [16]): 10
Clc1cnc(Oc2ccccc2-n2cccc2)nc1 [Compound 269] | 0 | 0 | 0 | 0 | 0 | 0 | 0 | 0 | 0 | 0 | 0 | 0 | 0 | 0 | 0 | 0 | 0 | 0 | 0 | 0 | Plant response rating, Ryegrass, Italian (Italian ryegrass [4]; [14]): 0; Ryegrass, Italian plant response rating (0 to 100 scale) (Italian ryegrass [4]; 125 g ai/ha): 0; Plant response rating, Foxtail, Giant (giant foxtail [5]; [14]): 0; Foxtail, Giant plant response rating (0 to 100 scale) (giant foxtail [5]; 125 g ai/ha): 0; Plant response rating, Pigweed (pigweed [6]; [14]): 0; Pigweed plant response rating (0 to 100 scale) (pigweed [6]; 125 g ai/ha): 0; Plant response rating, Barnyardgrass (barnyardgrass [7]; [16]): 0; Plant response rating, Kochia (kochia [8]; [16]): 0; Plant response rating, Ragweed (ragweed [9]; 125 g ai/ha): 0; Plant response rating, Ryegrass, Italian (Italian ryegrass [10]; 125 g ai/ha): 0; Plant response rating, Foxtail, Giant (giant foxtail [11]; [16]): 0; Plant response rating, Pigweed (pigweed [12]; 125 g ai/ha): 0; Plant response rating, Wheat (wheat; 125 g ai/ha): 0; Plant response rating, Corn (corn; [16]): 0; Plant response rating, Blackgrass (blackgrass; [16]): 0; Plant response rating, Galium (galium; [16]): 0
FC(F)c1cccc(Oc2ncc(Cl)cn2)c1-n1cncc1Br [Compound 259] | 10 | 70 | 20 | 80 | 10 | 70 | 0 | 60 | 50 | 0 | 10 | 70 | 0 | 0 | 20 | 70 | 0 | 75 | 70 | 0 | Plant response rating, Ryegrass, Italian (Italian ryegrass [4]; [14]): 0; Ryegrass, Italian plant response rating (0 to 100 scale) (Italian ryegrass [4]; 125 g ai/ha): 0; Plant response rating, Foxtail, Giant (giant foxtail [5]; [14]): 30; Foxtail, Giant plant response rating (0 to 100 scale) (giant foxtail [5]; 125 g ai/ha): 100; Plant response rating, Pigweed (pigweed [6]; [14]): 70; Pigweed plant response rating (0 to 100 scale) (pigweed [6]; 125 g ai/ha): 100; Plant response rating, Barnyardgrass (barnyardgrass [7]; [16]): 30; Plant response rating, Kochia (kochia [8]; [16]): 80; Plant response rating, Ragweed (ragweed [9]; 125 g ai/ha): 70; Plant response rating, Ryegrass, Italian (Italian ryegrass [10]; 125 g ai/ha): 10; Plant response rating, Foxtail, Giant (giant foxtail [11]; [16]): 40; Plant response rating, Pigweed (pigweed [12]; 125 g ai/ha): 90; Plant response rating, Wheat (wheat; 125 g ai/ha): 0; Plant response rating, Corn (corn; [16]): 10; Plant response rating, Blackgrass (blackgrass; [16]): 50; Plant response rating, Galium (galium; [16]): 80
CC(C)Oc1cnn(-c2c(Cl)cccc2Oc2ncc(Cl)cn2)c1 [Compound 103] | – | – | – | – | – | – | 0 | 0 | 0 | 0 | 0 | 0 | 0 | 0 | 0 | 0 | 0 | 0 | 0 | 0 | Barnyardgrass plant response rating (0 to 100 scale) (barnyardgrass [1]; 31 g ai/ha): 0; Plant response rating, Barnyardgrass (barnyardgrass [1]; 125 g ai/ha): 0; Kochia plant response rating (0 to 100 scale) (kochia [2]; 31 g ai/ha): 0; Plant response rating, Kochia (kochia [2]; 125 g ai/ha): 0; Ragweed plant response rating (0 to 100 scale) (ragweed [3]; 31 g ai/ha): 0; Plant response rating, Ragweed (ragweed [3]; 125 g ai/ha): 0; Ryegrass, Italian plant response rating (0 to 100 scale) (Italian ryegrass [4]; 31 g ai/ha): 0; Plant response rating, Ryegrass, Italian (Italian ryegrass [4]; 125 g ai/ha): 0; Foxtail, Giant plant response rating (0 to 100 scale) (giant foxtail [5]; 31 g ai/ha): 0; Plant response rating, Foxtail, Giant (giant foxtail [5]; 125 g ai/ha): 0; Pigweed plant response rating (0 to 100 scale) (pigweed [6]; 31 g ai/ha): 0; Plant response rating, Pigweed (pigweed [6]; 125 g ai/ha): 0; Plant response rating, Barnyardgrass (barnyardgrass [7]; [17]): 0; Plant response rating, Kochia (kochia [8]; [17]): 0; Plant response rating, Foxtail, Giant (giant foxtail [11]; [17]): 0; Plant response rating, Corn (corn; [17]): 0; Plant response rating, Blackgrass (blackgrass; [17]): 0; Plant response rating, Galium (galium; [17]): 0
